# Data reported in patent US12606552B2, “Bifunctional compound, preparation method therefor, and use thereof” (SUZHOU KINTOR PHARMACEUTICALS, INC., priority 2020, dated 2026).
# Target: T1, AR (Homo sapiens, UniProt P10275, T878A)
# T1 sequence (P10275 1-920 T878A): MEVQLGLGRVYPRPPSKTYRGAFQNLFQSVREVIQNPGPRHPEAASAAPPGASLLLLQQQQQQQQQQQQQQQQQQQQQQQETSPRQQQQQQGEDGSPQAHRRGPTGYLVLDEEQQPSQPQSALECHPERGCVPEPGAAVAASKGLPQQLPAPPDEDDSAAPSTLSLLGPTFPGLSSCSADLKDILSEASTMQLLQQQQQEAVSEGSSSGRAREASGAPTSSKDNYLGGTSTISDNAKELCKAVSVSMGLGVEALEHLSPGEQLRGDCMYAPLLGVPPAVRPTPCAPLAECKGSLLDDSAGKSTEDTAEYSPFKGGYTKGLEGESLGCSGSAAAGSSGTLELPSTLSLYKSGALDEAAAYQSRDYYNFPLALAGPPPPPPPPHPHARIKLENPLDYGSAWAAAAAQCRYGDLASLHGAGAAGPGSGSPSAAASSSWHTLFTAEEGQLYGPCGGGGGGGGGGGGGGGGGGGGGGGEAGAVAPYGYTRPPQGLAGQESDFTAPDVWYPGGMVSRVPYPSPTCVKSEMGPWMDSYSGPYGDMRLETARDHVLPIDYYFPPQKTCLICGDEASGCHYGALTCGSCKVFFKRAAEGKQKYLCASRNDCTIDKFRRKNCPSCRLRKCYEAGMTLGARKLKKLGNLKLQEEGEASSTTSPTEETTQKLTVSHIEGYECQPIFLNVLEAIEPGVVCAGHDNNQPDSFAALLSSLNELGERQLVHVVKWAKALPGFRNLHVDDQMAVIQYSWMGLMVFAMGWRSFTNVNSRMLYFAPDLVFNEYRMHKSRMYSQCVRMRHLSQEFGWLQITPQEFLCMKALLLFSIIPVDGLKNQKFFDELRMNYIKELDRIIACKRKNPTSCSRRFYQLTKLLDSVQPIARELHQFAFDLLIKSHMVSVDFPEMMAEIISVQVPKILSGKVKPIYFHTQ
# Assay: Effects of compounds on AR expression in LNCaP cells (ELISA, DC50)
# Assay type: cell-based
# Set-up: Measurement of the Effects of Drugs on the Expression of AR in Cells by ELISA Method; endogenous in cells; host or cells: LNCaP
# Conditions: 24 hours of drug treatment, AR by ELISA
# Description: Activity Assay Example 1: Effects of Compounds on AR Expression in LNCaP Cells
# 1. Cell Line and Cell Culture
# Human prostate cancer cells LNCaP (Shanghai Chinese Academy of Sciences Cell Bank). LNCaP was cultured in 1640 medium containing 10% fetal bovine serum. The cells grow in clusters, with weak adhesion to the bottom of the culture flask, slow proliferation, with a multiplication time of 72 h. The cells are closely adhered to each other and need to be digested with 0.05% trypsin containing 0.025% EDTA. The cells were passaged every 3 days. The cells were cultured at 37° C. and 5% CO2 in a humidified incubator
# 2. Cell plating: The supernatant was discarded, and the Lncap cells in the logarithmic growth phase were taken, washed with PBS once, and added with appropriate 0.05% trypsin digestion solution to be fully digested into single cell suspension, and centrifuged, resuspended and counted to make the number of cells about 15,000 per well, then inoculated in a 96-well plate, placed at 37° C., 5% CO2 and cultured overnight for 24 h.
# 3. Preparation and Addition of Compound Solutions
# About 2 mg of each compound was weighed and dissolved in DMSO to make the stock solution with a concentration of 10 mmol/L. Dilution process (final concentration dilution: 2, 0.667, 0.222, 0.074, 0.0245, 0.008, 0.003, 0.001, 0.0003, 0.0001 μmol/L): 10 centrifuge tubes with a volume of 1.5 mL were taken and numbered 1, 2, 3, 4, 5, 6, 7, 8, 9, and 10, 80 μL DMSO was added to tube No. 1, and 60 μL DMSO was added to tubes No. 2 to No. 10, 20 μL of the stock solution was pipetted to tube No. 1 and mixed well; 30 μL was pipetted from tube No. 1 into tube No. 2 and mixed well. 30 μL was pipetted from tube No. 2 into tube No. 3 and mixed well, and so forth, to obtain samples No. 4-10, and to obtain working solutions of compounds of different concentrations respectively. 2 μL was pipetted from the above-mentioned tubes No. 1-10 into each corresponding sterile deep-well plates, added with 198 μL of culture medium, and mixed well. 11 ul was added to each well of the 96-well cell plate cultured overnight to obtain the corresponding desired concentrations (2, 0.667, 0.222, 0.074, 0.0245, 0.008, 0.003, 0.001, 0.0003, 0.0001 μmol/L).
# 4. Measurement of the Effects of Drugs on the Expression of AR in Cells by ELISA Method
# After 24 hours of drug treatment, the supernatant was removed, and 200 μL of PBS was added to wash cells, and then the supernatant was removed, and 100 μL of cell lysate was added to lyse cells on ice for 20 min, then the cell lysate was centrifuged at 4000 rpm for 20 min at 4° C. and the supernatant was taken for later use. The measurement steps of the supernatant were according to the ELISA kit instructions:
# 4.1 The slats required for the test were taken out from the sealed bag that has been equilibrated to room temperature. Please put the unused slats and desiccant back into the aluminum foil bag and compress the self-sealing strip, seal the bag, and store at 4° C.
# 4.2 Standards and sample diluents were added to blank wells, and different concentrations of standards (10 ul/well) and sample diluents (90 ul/well) were added to the remaining corresponding wells, and the reaction wells were sealed with sealing tape, and refrigerated at 4° C. overnight.
# 4.3 Primary antibody was diluted with dilution buffer to the corresponding concentration and added to each well in 100 ul/well. The reaction wells were sealed with sealing tape and incubated at 37° C. for 60 min.
# 4.4 Secondary antibody was diluted with dilution buffer to the corresponding concentration and added to each well in 100 ul/well. The reaction wells were sealed with sealing tape and incubated at 37° C. for 30 min.
# 4.5 The reaction wells were added with 100 ul/well of substrate (TMB) and incubated at room temperature for 30 min.
# 4.6 The reaction wells were added with 100 ul/well of stop solution, mixed well and then the OD450 value was measured with a microplate reader. […]
row,Compound,DC50
1,CC1(C)C(=O)N(c2ccc(C#N)c(C(F)(F)F)c2F)C(=S)N1c1ccc(CCCC(=O)NCCNC(=O)COc2cccc3c2C(=O)N(C2CCC(=O)NC2=O)C3=O)nc1 (stereo not shown) [Compound A6],> 2000 nM
2,CC1(C)C(=O)N(c2ccc(C#N)c(C(F)(F)F)c2F)C(=S)N1c1ccc(-c2ccc(OCCNC(=O)COc3cccc4c3C(=O)N(C3CCC(=O)NC3=O)C4=O)cc2)cc1 (stereo not shown) [Compound A22],73.7 nM
3,CC1(C)C(=O)N(c2ccc(C#N)c(C(F)(F)F)c2F)C(=S)N1c1ccc(-c2ccc(OCCNC(=O)COc3cccc4c3C(=O)N(C3CCC(=O)NC3=O)C4=O)cc2)nc1 (stereo not shown) [Compound A23],721 nM
4,CC1(C)C(=O)N(c2ccc(C#N)c(C(F)(F)F)c2F)C(=S)N1c1ccc(C2CC2C(=O)NCCNC(=O)COc2cccc3c2C(=O)N(C2CCC(=O)NC2=O)C3=O)nc1 (stereo not shown) [Compound A24],> 2000 nM
5,CC1(C)C(=O)N(c2ccc(C#N)c(C(F)(F)F)c2F)C(=S)N1c1ccc(C2CC2C(=O)NCCCNC(=O)COc2cccc3c2C(=O)N(C2CCC(=O)NC2=O)C3=O)nc1 (stereo not shown) [Compound A25],> 2000 nM
6,CC1(C)C(=O)N(c2ccc(C#N)c(C(F)(F)F)c2F)C(=S)N1c1ccc(C2CC2C(=O)NCCCCNC(=O)COc2cccc3c2C(=O)N(C2CCC(=O)NC2=O)C3=O)nc1 (stereo not shown) [Compound A26],> 2000 nM
7,CC1(C)C(=O)N(c2ccc(C#N)c(C(F)(F)F)c2F)C(=S)N1c1ccc(C#CC2CCN(CCNC(=O)COc3cccc4c3C(=O)N(C3CCC(=O)NC3=O)C4=O)CC2)cc1 (stereo not shown) [Compound A27],34.8 nM
8,CC1(C)C(=O)N(c2ccc(C#N)c(C(F)(F)F)c2F)C(=S)N1c1ccc([C@@H]2C[C@H]2C(=O)NCCCCNC(=O)COc2cccc3c2C(=O)N(C2CCC(=O)NC2=O)C3=O)nc1 (stereo partly shown) [Compound A28],> 2000 nM
9,CC1(C)C(=O)N(c2ccc(C#N)c(C(F)(F)F)c2F)C(=S)N1c1ccc(-c2ccc(C(=O)NCCNC(=O)COc3cccc4c3C(=O)N(C3CCC(=O)NC3=O)C4=O)cc2)nc1 (stereo not shown) [Compound A34],835 nM
10,CC1(C)C(=O)N(c2ccc(C#N)c(C(F)(F)F)c2F)C(=S)N1c1ccc(-c2ccc(OCCNC(=O)COc3ccc4c(c3)C(=O)N(C3CCC(=O)NC3=O)C4=O)cc2)nc1 (stereo not shown) [Compound A38],58.6 nM
11,CC1(C)C(=O)N(c2ccc(C#N)c(C(F)(F)F)c2F)C(=S)N1c1cnc(-c2ccc(OCCNC(=O)COc3cccc4c3C(=O)N(C3CCC(=O)NC3=O)C4=O)c(F)c2)c(F)c1 (stereo not shown) [Compound A39],19.4 nM
12,CC1(C)C(=O)N(c2ccc(C#N)c(C(F)(F)F)c2F)C(=S)N1c1cnc(-c2ccc(OCCNC(=O)COc3ccc4c(c3)C(=O)N(C3CCC(=O)NC3=O)C4=O)c(F)c2)c(F)c1 (stereo not shown) [Compound A40],29.8 nM
13,CC1(C)C(=O)N(c2ccc(C#N)c(C(F)(F)F)c2F)C(=S)N1c1cnc(-c2ccc(OCC(=O)NCCNc3cccc4c3C(=O)N(C3CCC(=O)NC3=O)C4=O)c(F)c2)c(F)c1 (stereo not shown) [Compound A41],59 nM
14,CC1(C)C(=O)N(c2ccc(C#N)c(C(F)(F)F)c2F)C(=S)N1c1cnc(-c2ccc(OC3CCN(C(=O)COc4ccc5c(c4)C(=O)N(C4CCC(=O)NC4=O)C5=O)CC3)c(F)c2)c(F)c1 (stereo not shown) [Compound A42],122 nM
15,CC1(C)C(=O)N(c2ccc(C#N)c(C(F)(F)F)c2F)C(=S)N1c1cnc(-c2ccc(OC3CCN(C(=O)COc4cccc5c4C(=O)N(C4CCC(=O)NC4=O)C5=O)CC3)c(F)c2)c(F)c1 (stereo not shown) [Compound A43],88.3 nM
16,CC1(C)C(=O)N(c2ccc(C#N)c(C(F)(F)F)c2F)C(=S)N1c1ccc(-c2ccc(OC3CCN(C(=O)COc4cccc5c4C(=O)N(C4CCC(=O)NC4=O)C5=O)C3)cc2)nc1 (stereo not shown) [Compound A44],> 2000 nM
17,CC1(C)C(=O)N(c2ccc(C#N)c(C(F)(F)F)c2F)C(=S)N1c1ccc(-c2ccc(C(=O)N3CCN(C(=O)COc4cccc5c4C(=O)N(C4CCC(=O)NC4=O)C5=O)CC3)cc2)nc1 (stereo not shown) [Compound A45],> 2000 nM
18,Cc1ncsc1-c1ccc(CNC(=O)[C@@H]2C[C@@H](O)CN2C(=O)[C@@H](NC(=O)COc2ccc(-c3ccc(N4C(=S)N(c5ccc(C#N)c(C(F)(F)F)c5F)C(=O)C4(C)C)cn3)cc2)C(C)(C)C)cc1 [Compound A48],> 2000 nM
19,Cc1ncsc1-c1ccc(CNC(=O)[C@@H]2C[C@@H](O)CN2C(=O)[C@@H](NC(=O)CCCCCNC(=O)c2ccc(-c3ccc(N4C(=S)N(c5ccc(C#N)c(C(F)(F)F)c5F)C(=O)C4(C)C)cn3)cc2)C(C)(C)C)cc1 [Compound A53],149 nM
20,Cc1ncsc1-c1ccc(CNC(=O)[C@@H]2C[C@@H](O)CN2C(=O)[C@@H](NC(=O)CCN2CCC(NC(=O)c3ccc(-c4ccc(N5C(=S)N(c6ccc(C#N)c(C(F)(F)F)c6F)C(=O)C5(C)C)cn4)cc3)C2)C(C)(C)C)cc1 (stereo partly shown) [Compound A56],704 nM
21,Cc1ncsc1-c1ccc(CNC(=O)[C@@H]2C[C@@H](O)CN2C(=O)[C@@H](NC(=O)CCN2CCN(C(=O)c3ccc(-c4ccc(N5C(=S)N(c6ccc(C#N)c(C(F)(F)F)c6F)C(=O)C5(C)C)cn4)cc3)CC2)C(C)(C)C)cc1 [Compound A58],133 nM
22,Cc1ncsc1-c1ccc(CNC(=O)[C@@H]2C[C@@H](O)CN2C(=O)[C@@H](NC(=O)[C@H]2CC[C@H](CNC(=O)c3ccc(-c4ccc(N5C(=S)N(c6ccc(C#N)c(C(F)(F)F)c6F)C(=O)C5(C)C)cn4)cc3)CC2)C(C)(C)C)cc1 [Compound A59],48.6 nM
23,Cc1ncsc1-c1ccc(CNC(=O)[C@@H]2C[C@@H](O)CN2C(=O)[C@@H](NC(=O)c2ccc(CNC(=O)c3ccc(-c4ccc(N5C(=S)N(c6ccc(C#N)c(C(F)(F)F)c6F)C(=O)C5(C)C)cn4)cc3)cc2)C(C)(C)C)cc1 [Compound A60],82.9 nM
24,Cc1ncsc1-c1ccc(CNC(=O)[C@@H]2C[C@@H](O)CN2C(=O)[C@@H](NC(=O)C2CCN(C3CCN(C(=O)c4ccc(-c5ccc(N6C(=S)N(c7ccc(C#N)c(C(F)(F)F)c7F)C(=O)C6(C)C)cn5)cc4)CC3)CC2)C(C)(C)C)cc1 [Compound A61],268 nM
25,Cc1ncsc1-c1ccc(CNC(=O)[C@@H]2C[C@@H](O)CN2C(=O)[C@@H](NC(=O)CCCN2CC(Oc3ccc(-c4ccc(N5C(=S)N(c6ccc(C#N)c(C(F)(F)F)c6F)C(=O)C5(C)C)cn4)cc3)C2)C(C)(C)C)cc1 [Compound A64],233 nM
